Experimental data reported in patent publication US20230002408A1, “HETEROARYLDIHYDROPYRIMIDINE DERIVATIVES AND METHODS OF TREATING HEPATITIS B INFECTIONS” (JANSSEN PHARMACEUTICA NV, priority 2019, published 2023).
Read-outs that look alike come from different tables or passages of the source.

Columns and labels:
HBV = assay: Anti-viral assay in HepG2.2.15 cells: HBV DNA in culture medium by qPCR; type: cell-based; settings: Hepatitis B virus, HepG2.2.15, 144 h
Procedure: (§1) HepG2.2.15 (the HepG2.2.15 cell line can be produced by transfection of the HepG2 cell line as described in Sells, Chen, and Acs 1987 (Proc. Natl. Acad. Sci. USA 84: 1005-1009), and the HepG2 cell line is available from ATCC® under number HB-8065™).
(§2) HepG2.2.15 cells were plated into 96-well plate in 2% FBS culture medium at the density of 40,000 cells/well and 5,000 cells/well for HBV inhibitory activity and cytotoxicity determination, respectively. After incubation at 37° C., 5% CO2 overnight, cells were treated with medium containing compounds for 6 days with medium and compounds refreshed after 3 days of treatment. Each compound was tested in a 1:3 serial dilutions at 8 different concentrations in triplicate. The highest concentration of the compounds was 10 uM or 1 uM for anti-HBV activity assay and 100 uM for cytotoxicity determination. Cell viability was determined by CCK-8 assay. After 6 days of compounds treatment, 20 μl CCK-8 reagents were added to each well of cytotoxicity assay plates. Cell plates were incubated at 37° C., 5% CO2 for 2.5 h. The absorbance at 450 nm wavelength and the absorbance at 630 nm wavelength as reference was measured.
The change of HBV DNA level induced by the compounds was assessed by quantitative real-time polymerase chain reaction (qPCR). Briefly, the HBV DNA in the culture medium was extracted using QlAamp 96 DNA Blood Kit according to the manual and then quantified by real-time PCR assay using the primers and probe in the table 1 below.
(§3) EC50 and CC50 values are calculated by the GRAPHPAD PRISM software.

[1] = Cytotoxicity determination in HepG2.2.15 cells (CCK-8 cell viability); type: cell-based; settings: human, 6 days treatment, CCK-8, highest concentration 100 uM
Procedure: as §1, §2, §3

[2] = HepG2.2.15 cells, 6 days treatment, HBV DNA in culture medium by real-time PCR, read-out: EC50

Compound	EC50 (HBV) [nM]	CC50 at 6 days [1] [nM]	EC50 (HBV; [2]) [nM]
CCOC(=O)C1=C(CN2CCO[C@@H]3CN(C(C)=O)C[C@@H]32)NC(c2nccs2)=N[C@H]1c1cccc(F)c1C (racemic) [Compound I-4E, (S)-ethyl 6-(((cis)-6-acetylhexahydropyrrolo[3,4-b][1,4]oxazin-4(4aH)-yl)methyl)-4-(3-fluoro-2-methylphenyl)-2-(thiazol-2-yl)-1,4-dihydropyrimidine-5-carboxylate]	7.1	48300	
CCOC(=O)C1=C(CN2CCO[C@@H]3CN(S(C)(=O)=O)C[C@@H]32)NC(c2nccs2)=N[C@H]1c1cccc(F)c1C (racemic) [Compound I-7F, (S)-(cis)-Ethyl 4-(3-fluoro-2-methylphenyl)-6-((6-(methylsulfonyl)hexahydropyrrolo[3,4-b][1,4]oxazin-4(4aH)-yl)methyl)-2-(thiazol-2-yl)-1,4-dihydropyrimidine-5-carboxylate]		26400	8
CCOC(=O)C1=C(CN2CCO[C@@H]3CN(c4ncc(C(=O)O)s4)C[C@@H]32)NC(c2nccs2)=N[C@H]1c1cccc(F)c1C (racemic) [Compound I-8F, 2-((cis)-4-(((S)-5-(Ethoxycarbonyl)-6-(3-fluoro-2-methylphenyl)-2-(thiazol-2-yl)-3,6-dihydropyrimidin-4-yl)methyl)hexahydropyrrolo[3,4-b][1,4]oxazin-6(2H)-yl)thiazole-5-carboxylic acid]	45	37600	
CCOC(=O)C1=C(CN2CCO[C@H]3CN(C(=O)CC(C)(C)C(=O)O)C[C@H]32)NC(c2nccs2)=N[C@H]1c1cccc(F)c1C (relative stereo) [Compound I-2A, 4-((4aR*,7aS*)-4-4(S)-5-(ethoxycarbonyl)-6-(3-fluoro-2-methylphenyl)-2-(thiazol-2-yl)-3,6-dihydropyrimidin-4-yl)methyl)hexahydropyrrolo[3,4-b][1,4]oxazin-6(2H)-yl)-2,2-dimethyl-4-oxobutanoic acid]	33	74000	
CCOC(=O)C1=C(CN2CCO[C@H]3CN(CC(C)(C)C(=O)O)C[C@H]32)NC(c2nccs2)=N[C@H]1c1cccc(F)c1C (relative stereo) [Compound I-6A, 3-((4aR*,7aS*)-4-4(S)-5-(Ethoxycarbonyl)-6-(3-fluoro-2-methylphenyl)-2-(thiazol-2-yl)-3,6-dihydropyrimidin-4-yl)methyphexahydropyrrolo[3,4-b][1,4]oxazin-6(2H)-yl)-2,2-dimethylpropanoic acid]		82400	18
CCOC(=O)C1=C(CN2CCO[C@@H]3CN(S(=O)(=O)C4CC(C)(C(=O)O)C4)C[C@@H]32)NC(c2nccs2)=N[C@H]1c1cccc(F)c1C (relative stereo) [Compound I-9F, (4aS*,7aR*)—(S)-3-((4-((5-(Ethoxycarbonyl)-6-(3-fluoro-2-methylphenyl)-2-(thiazol-2-yl)-3,6-dihydropyrimidin-4-yl)methyphexahydropyrrolo[3,4-b][1,4]oxazin-6(2H)-yl)sulfonyl)-1-methylcyclobutanecarboxylic acid]		82600	110
CCOC(=O)C1=C(CN2CCO[C@H]3CN(C(=O)C(C)(C)C(=O)O)C[C@H]32)NC(c2nccs2)=N[C@H]1c1cccc(F)c1C (relative stereo) [Compound I-12A, 3-((4aR*,7aS*)-4-4(S)-5-(ethoxycarbonyl)-6-(3-fluoro-2-methylphenyl)-2-(thiazol-2-yl)-3,6-dihydropyrimidin-4-yl)methyl)hexahydropyrrolo[3,4-b][1,4]oxazin-6(2H)-yl)-2,2-dimethyl-3-oxopropanoic acid]	310	> 100000	
CCOC(=O)C1=C(CN2CCO[C@H]3CN(CC(C)(C)C(=O)O)C(=O)[C@H]32)NC(c2nccs2)=N[C@H]1c1cccc(F)c1C (single isomer, unassigned) [Compound I-3B, (S)-3-((4aS*,7aS*)-4-((5-(Ethoxycarbonyl)-6-(3-fluoro-2-methylphenyl)-2-(thiazol-2-yl)-3,6-dihydropyrimidin-4-yl)methyl)-5-oxohexahydropyrrolo[3,4-b][1,4]oxazin-6(2H)-yl)-2,2-dimethylpropanoic acid]		60200	5.2
CCOC(=O)C1=C(CN2CCO[C@H]3CCN(CC(C)(C)C(=O)O)C[C@H]32)NC(c2nccs2)=N[C@H]1c1cccc(F)c1C (single isomer, unassigned) [Compound I-10A, 3-((4aR*,8aS*)-4-(((S)-5-(Ethoxycarbonyl)-6-(3-fluoro-2-methylphenyl)-2-(thiazol-2-yl)-3,6-dihydropyrimidin-4-yl)methyl)hexahydro-2H-pyrido[4,3-b][1,4]oxazin-6(7H)-yl)-2,2-dimethylpropanoic acid]		94500	28
CCOC(=O)C1=C(CN2CCO[C@@H]3CN(CC(C)(C)C(=O)O)CC[C@@H]32)NC(c2nccs2)=N[C@H]1c1cccc(F)c1C (single isomer, unassigned) [Compound I-11A, (S)-3-((4aR*,8aS*)-1-((5-(Ethoxycarbonyl)-6-(3-fluoro-2-methylphenyl)-2-(thiazol-2-yl)-3,6-dihydropyrimidin-4-yl)methyl)hexahydro-1H-pyrido[3,4-b][1,4]oxazin-6(7H)-yl)-2,2-dimethylpropanoic acid]		97900	48
CCOC(=O)C1=C(CN2CCO[C@H]3CN(CC(C)(C)C(=O)O)C[C@H]32)NC(c2nccs2)=N[C@H]1c1cccc(F)c1Cl (single isomer, unassigned) [Compound I-13A, 3-((4aR*,7aS*)-4-0(R*)-6-(2-Chloro-3-fluorophenyl)-5-(ethoxycarbonyl)-2-(thiazol-2-yl)-3,6-dihydropyrimidin-4-yl)methyl)hexahydropyrrolo[3,4-b][1,4]oxazin-6(2H)-yl)-2,2-dimethylpropanoic acid]		67100	13
COC(=O)C1=C(CN2CCO[C@H]3CN(CC(C)(C)C(=O)O)C[C@H]32)NC(c2nccs2)=N[C@H]1c1cccc(F)c1C (single isomer, unassigned) [Compound I-14A, 3-((4aR*,7aS*)-4-0(S*)-6-(3-fluoro-2-methylphenyl)-5-(methoxycarbonyl)-2-(thiazol-2-yl)-3,6-dihydropyrimidin-4-yl)methyl)hexahydropyrrolo[3,4-b][1,4]oxazin-6(2H)-yl)-2,2-dimethylpropanoic acid]		> 100000	33
COC(=O)C1=C(CN2CCO[C@H]3CN(CC(C)(C)C(=O)O)C[C@H]32)NC(c2nccs2)=N[C@H]1c1ccc(F)cc1Cl (single isomer, unassigned) [Compound I-15A, 3-((4aR*,7aS*)-4-((R*)-6-(2-Chloro-4-fluorophenyl)-5-(methoxycarbonyl)-2-(thiazol-2-yl)-3,6-dihydropyrimidin-4-yl)methyl)hexahydropyrrolo[3,4-b][1,4]oxazin-6(2H)-yl)-2,2-dimethylpropanoic acid]		> 100000	19
COC(=O)C1=C(CN2CCO[C@H]3CN(CC(C)(C)C(=O)O)C[C@H]32)NC(c2nccs2)=N[C@H]1c1cccc(F)c1Cl (single isomer, unassigned) [Compound I-16A, 3-((4aR*,7aS*)-4-0(R*)-6-(2-Chloro-3-fluorophenyl)-5-(methoxycarbonyl)-2-(thiazol-2-yl)-3,6-dihydropyrimidin-4-yl)methyl)hexahydropyrrolo[3,4-b][1,4]oxazin-6(2H)-yl)-2,2-dimethylpropanoic acid]		92800	15
COC(=O)C1=C(CN2CCO[C@H]3CN(CC(C)(C)C(=O)O)C(=O)[C@H]32)NC(c2nccs2)=N[C@H]1c1ccc(F)c(F)c1C (single isomer, unassigned) [Compound I-17B, 3-((4aS*,7aS*)-4-(((S*)-6-(3,4-difluoro-2-methylphenyl)-5-(methoxycarbonyl)-2-(thiazol-2-yl)-3,6-dihydropyrimidin-4-yl)methyl)-5-oxohexahydropyrrolo[3,4-b][1,4]oxazin-6(2H)-yl)-2,2-dimethylpropanoic acid]		41700	2.6
CCOC(=O)C1=C(CN2CCO[C@H]3CN(CC(C)(C)C(=O)O)C(=O)[C@H]32)NC(c2nccs2)=N[C@H]1c1cccc(F)c1Cl (single isomer, unassigned) [Compound I-18A, 3-((4aS*,7aS*)-4-4(R*)-6-(2-chloro-3-fluorophenyl)-5-(ethoxycarbonyl)-2-(thiazol-2-yl)-3,6-dihydropyrimidin-4-yl)methyl)-5-oxohexahydropyrrolo[3,4-b][1,4]oxazin-6(2H)-yl)-2,2-dimethylpropanoic acid]		62400	7
